Source: patent US6369059B1, “Tetracyclic derivatives, process of preparation and use” (ICOS Corporation, priority 1994, dated 2002)

`O=C1[C@H]2Cc3c([nH]c4ccccc34)[C@@H](c3ccc4c(c3)OCO4)N2C(=O)CN1CC1CCCCC1` [Example 83, (6R,12aR)-2,3,6,7,12,12a-Hexahydro-6-(3,4-methylenedioxyphenyl)-2-cyclohexylmethyl-pyrazino[2′,1′:6,1]pyrido[3,4-b]indole-1,4-dione] gave a melting point of 209 °C. Work on `CCCCN1CC(=O)N2[C@H](c3ccc4c(c3)OCO4)c3[nH]c4ccccc4c3C[C@@H]2C1=O` [Example 80, (6R,12aR)-2,3,6,7,12,12a-Hexahydro-2-butyl-6(3,4-methylenedioxyphenyl)-pyrazino[2′,1′:6,1]pyrido[3,4-b]indole-1,4-dione] yielded a melting point of 209 to 210 °C. Compound `O=C1[C@H]2Cc3c([nH]c4ccccc34)[C@H](c3ccc4c(c3)OCO4)N2C(=O)CN1Cc1ccccn1` (relative stereo) [Example 10, Cis-2,3,6,7,12,12a-Hexahydro-2-(2-pyridylmethyl)-6-(3,4-methylenedioxyphenyl)-pyrazino[2′,1′:6,1]pyrido[3,4-b]indole-1,4-dione] has a melting point of 285 to 286 °C. `O=C1NCC(=O)N2[C@@H](c3ccc4c(c3)OCO4)c3[nH]c4ccccc4c3C[C@H]12` (relative stereo) [Example 4, Cis-2,3,6,7,12,12a-Hexahydro-6-(3,4-methylenedioxyphenyl)-pyrazino[2′,1′:6,1]pyrido[3,4-b]indole-1,4-dione] showed a melting point of 283 to 285 °C. With `CCCCN1CC(=O)N2[C@@H](c3ccc(N)cc3)c3[nH]c4ccccc4c3C[C@@H]2C1=O` (relative stereo) [Example 98, Cis-2,3,6,7,12,12a-Hexahydro-6-(4-aminophenyl)-2-butyl-pyrazino[2′,1′:6,1]pyrido[3,4-b]indole-1,4-dione] the melting point was 192 °C. For `O=C1[C@H]2Cc3c([nH]c4ccccc34)[C@H](c3ccc4c(c3)OCO4)N2C(=O)CN1Cc1ccc(F)cc1` (relative stereo) [Example 24, Cis-2,3,6,7,12,12a-Hexahydro-2-(4-fluorobenzyl)6-(3,4-methylenedioxyphenyl)-pyrazino[2′,1′:6,1]pyrido[3,4-b]indole-1,4-dione], the melting point was 281 to 283 °C. Work on `C[C@@H]1C(=O)N2[C@H](c3ccc4c(c3)OCO4)c3[nH]c4ccccc4c3C[C@@H]2C(=O)N1C` [Example 116, (3R,6R,12aR)-2,3,6,7,12,12a-Hexahydro-2,3-dimethyl-6-(3,4-methylenedioxyphenyl)-pyrazino[2′,1′:6,1]pyrido[3,4-b]indole-1,4-dione] yielded a melting point of 219 to 220 °C. With `COc1ccc([C@@H]2c3[nH]c4ccccc4c3C[C@@H]3C(=O)N(C4CCCC4)CC(=O)N23)cc1Cl` [Example 88, (6R,12aR)-2,3,6,7,12,12a-Hexahydro-2-cyclopentyl6-(3-chloro-4-methoxyphenyl)-pyrazino[2′,1′:6,1]pyrido[3,4-b]indole-1,4-dione] the melting point was 260 to 262 °C. With `C[C@H]1C(=O)N2[C@H](c3ccc4c(c3)OCO4)c3[nH]c4ccccc4c3C[C@@H]2C(=O)N1C` [Example 117, (3S,6R,12aR)-2,3,6,7,12,12a-Hexahydro-2,3-dimethyl-6-(3,4-methylenedioxyphenyl)-pyrazino[2′,1′:6,1]pyrido[3,4-b]indole-1,4-dione] the melting point was 307 to 309 °C. `O=C1[C@H]2Cc3c([nH]c4ccccc34)[C@H](c3ccc4c(c3)OCO4)N2C(=O)CN1C1CC1` (relative stereo) [Example 17, Cis-2,3,6,7,12,12a-Hexahydro-2cyclopropyl-6-(3,4-methylenedioxyphenyl)-pyrazino[2′,1′:6,1]pyrido[3,4-b]indole-1,4-dione] gave a melting point of 290 to 292 °C. `CN1CC(=O)N2[C@@H](c3ccsc3)c3[nH]c4ccccc4c3C[C@@H]2C1=O` (relative stereo) [Example 57, Cis-2,3,6,7,12,12a-Hexahydro-2-methyl-6-(3-thienyl)-pyrazino[2′,1′:6,1]pyrido[3,4-b]indole-1,4-dione] gave a melting point of 290 to 295 °C.
